These results are taken from patent US9018258B2, “Substituted 1-benzylcycloalkylcarboxylic acids and the use thereof” (Bayer Intellectual Property GmbH, priority 2010, dated 2015).

The structures appear in SMILES notation.

Holding throughout (assay type): cell-based
Assay [1] has as its target T1, GAL4-PPARδ (Homo sapiens, UniProt Q03181).
T1 construct: PPARδ (amino acids 138-442); expressed in transfected cells
T1 sequence (Q03181 138-441 limits assumed): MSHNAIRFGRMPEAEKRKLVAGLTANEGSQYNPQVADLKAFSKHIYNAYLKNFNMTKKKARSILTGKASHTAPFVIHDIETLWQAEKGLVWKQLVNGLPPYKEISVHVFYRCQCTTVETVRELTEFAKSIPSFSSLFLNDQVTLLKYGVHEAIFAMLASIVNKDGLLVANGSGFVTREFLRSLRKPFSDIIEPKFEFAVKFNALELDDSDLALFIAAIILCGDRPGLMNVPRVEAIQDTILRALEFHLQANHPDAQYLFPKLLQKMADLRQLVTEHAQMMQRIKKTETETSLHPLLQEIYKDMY
Nature of the assay: Cellular PPAR transactivation assay, GAL4-PPARδ chimera in CHO-K1 cells. The settings on record: for Emax: CHO-K1, maximum effect relative to reference compound (Example 73 of EP 1 452 521-A1 = 100%), read-out: PPARδ efficacy; for EC50: CHO-K1 cells, luciferase reporter, 6 h stimulation. An excerpt: (§1) A cellular assay is used to test for potentially activating properties of the compounds according to the invention with respect to the three human isoforms of the peroxisome proliferator-activated receptors (PPARα, PPARγ and PPARδ).
(§2) Since mammalian cells contain different endogenous nuclear receptors which may complicate an unambiguous interpretation of the results, an established chimera system is used in which the respective ligand binding domain of the human PPAR isoforms is fused to the DNA binding domain of the yeast transcription factor GAL4. The resulting GAL4-PPARα, γ and δ chimeras are co-transfected and stably expressed in CHO cells having a reporter construct.
(§3) The GAL4-PPAR expression constructs contain the ligand binding domain of PPARα (amino acids 167-468), PPARγ (amino acids 203-506) and PPARδ (amino acids 138-442) which are PCR-amplified and cloned into the vector pcDNA3.1. The respective expression vectors already contain the GAL4 DNA binding domain (amino acids 1-147) of the vector pFC2-dbd (Stratagene). The reporter construct, which contains five copies of the GAL4 binding site upstream of a thymidine kinase promoter, expresses firefly luciferase (Photinus pyralis) following activation and binding of GAL4-PPARα, γ or δ.
(§4) The day before the test, CHO-K1 cells (chinese hamster ovary; ATCC CCL-61) each stably expressing one of the above-described GAL4-PPAR chimeras and the luciferase reporter gene construct are sown in medium [Optimem (GIBCO) with 2% activated carbon-purified foetal calf serum (Hyclone), 1.35 mM sodium pyruvate (GIBCO) and 0.2% sodium bicarbonate (GIBCO)] in a density of 1×10^3 cells in 96-well microtitre plates (Greiner) and kept in a cell incubator (96% atmospheric humidity, 5% v/v CO2, 37° C.). On the test day, the substances to be tested are taken up in the medium mentioned above, but without addition of calf serum, and added in various concentrations to the cells. After a stimulation period of 6 h, the luciferase activity is measured using a video camera. The relative light units measured give, as a function of the substance concentration, a sigmoidal stimulation curve. The EC50 values are calculated using the computer programme GraphPad PRISM (Version 3.02). The maximum effect of a test substance in the respective PPAR assay is determined as efficacy in percent in comparison to an appropriate reference compound whose maximum effect is defined as 100%.
(§5) The reference compound selected here was the compound 2-(3-{[(2-chloro-4-propoxybenzoyl)-amino]methyl}-4-ethoxybenzyl)tetrahydrofuran-2-carboxylic acid [Example 73 of EP 1 452 521-A1] which is described in the prior art as a potent pan-PPAR agonist.
On the technique in general: In a reporter assay the amount or activity of a reporter protein is the signal.

Assay [2] has as its target T2, GAL4-PPARγ (Homo sapiens, UniProt P37231).
T2 construct: PPARγ (amino acids 203-506); expressed in transfected cells
T2 sequence (P37231 203-505 limits assumed): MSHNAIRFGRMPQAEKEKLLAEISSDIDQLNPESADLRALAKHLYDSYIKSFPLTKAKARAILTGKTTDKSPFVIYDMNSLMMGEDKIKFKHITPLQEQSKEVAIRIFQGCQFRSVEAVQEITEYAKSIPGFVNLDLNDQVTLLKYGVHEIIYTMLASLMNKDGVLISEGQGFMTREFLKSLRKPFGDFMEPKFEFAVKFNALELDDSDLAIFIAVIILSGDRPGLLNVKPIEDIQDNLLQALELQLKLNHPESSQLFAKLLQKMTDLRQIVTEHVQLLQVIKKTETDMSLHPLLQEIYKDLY
Nature of the assay: Cellular PPAR transactivation assay, GAL4-PPARγ chimera in CHO-K1 cells. The settings on record: for Emax: CHO-K1, maximum effect relative to reference compound (Example 73 of EP 1 452 521-A1 = 100%), read-out: PPARγ efficacy; for EC50: CHO-K1 cells, luciferase reporter, 6 h stimulation.
Source text: as §1, §2, §3, §4, §5

Assay [3] deals with T3, sGC (Rattus norvegicus, UniProt P20595).
T3 construct: expressed in transfected cells; host or cells: CHO reporter cell
Nature of the assay: Action at a recombinant guanylate cyclase reporter cell line (CHO reporter cell). Particulars: CHO reporter cell in vitro. On the procedure:
The cellular action of the compounds according to the invention is determined at a recombinant guanylate cyclase reporter cell line, as described in F. Wunder et al., Anal. Biochem. 339, 104-112 (2005).

The target of assay [4] is T4, GAL4-PPARα (Homo sapiens, UniProt Q07869).
T4 construct: expressed in transfected cells
T4 sequence (Q07869 167-468): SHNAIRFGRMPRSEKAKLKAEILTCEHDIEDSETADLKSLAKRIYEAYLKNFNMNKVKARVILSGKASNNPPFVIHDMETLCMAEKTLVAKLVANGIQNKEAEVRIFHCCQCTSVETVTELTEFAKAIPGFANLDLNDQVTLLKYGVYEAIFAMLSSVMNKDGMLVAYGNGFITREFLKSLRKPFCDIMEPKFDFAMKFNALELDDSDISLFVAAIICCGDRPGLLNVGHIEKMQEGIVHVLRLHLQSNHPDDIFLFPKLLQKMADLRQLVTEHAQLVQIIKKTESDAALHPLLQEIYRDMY
Nature of the assay: Cellular PPAR transactivation assay, GAL4-PPARα chimera in CHO-K1 cells. Particulars: for Emax: CHO-K1, maximum effect relative to reference compound (Example 73 of EP 1 452 521-A1 = 100%), read-out: PPARα efficacy; for EC50: CHO-K1 cells, luciferase reporter, 6 h stimulation.
Source text: as §1, §2, §3, §4, §5

A word on the EC50: it is the concentration needed to bring the measured effect to its halfway point. The low end stands for higher potency in that assay, the high end for lower potency in that assay.

T3 sequence (P19686 whole entry partner): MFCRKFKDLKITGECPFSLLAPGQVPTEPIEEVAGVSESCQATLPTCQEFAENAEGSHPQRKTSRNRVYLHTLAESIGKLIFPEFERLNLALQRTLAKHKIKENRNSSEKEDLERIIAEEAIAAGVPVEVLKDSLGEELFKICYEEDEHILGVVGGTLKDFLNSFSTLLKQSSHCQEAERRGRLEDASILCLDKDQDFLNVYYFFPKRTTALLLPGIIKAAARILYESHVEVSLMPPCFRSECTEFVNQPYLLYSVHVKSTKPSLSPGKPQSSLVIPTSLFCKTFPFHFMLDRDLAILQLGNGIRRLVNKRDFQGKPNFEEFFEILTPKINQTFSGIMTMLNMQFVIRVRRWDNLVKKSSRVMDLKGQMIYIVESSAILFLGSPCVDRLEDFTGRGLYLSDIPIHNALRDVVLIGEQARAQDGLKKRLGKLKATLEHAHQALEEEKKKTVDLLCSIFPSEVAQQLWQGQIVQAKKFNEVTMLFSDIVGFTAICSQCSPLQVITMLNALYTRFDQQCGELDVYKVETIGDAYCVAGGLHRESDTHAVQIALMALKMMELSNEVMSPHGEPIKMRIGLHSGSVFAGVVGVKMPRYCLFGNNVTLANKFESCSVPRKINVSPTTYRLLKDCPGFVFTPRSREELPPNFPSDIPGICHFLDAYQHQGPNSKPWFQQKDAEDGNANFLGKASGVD
T3 sequence (P20595 whole entry): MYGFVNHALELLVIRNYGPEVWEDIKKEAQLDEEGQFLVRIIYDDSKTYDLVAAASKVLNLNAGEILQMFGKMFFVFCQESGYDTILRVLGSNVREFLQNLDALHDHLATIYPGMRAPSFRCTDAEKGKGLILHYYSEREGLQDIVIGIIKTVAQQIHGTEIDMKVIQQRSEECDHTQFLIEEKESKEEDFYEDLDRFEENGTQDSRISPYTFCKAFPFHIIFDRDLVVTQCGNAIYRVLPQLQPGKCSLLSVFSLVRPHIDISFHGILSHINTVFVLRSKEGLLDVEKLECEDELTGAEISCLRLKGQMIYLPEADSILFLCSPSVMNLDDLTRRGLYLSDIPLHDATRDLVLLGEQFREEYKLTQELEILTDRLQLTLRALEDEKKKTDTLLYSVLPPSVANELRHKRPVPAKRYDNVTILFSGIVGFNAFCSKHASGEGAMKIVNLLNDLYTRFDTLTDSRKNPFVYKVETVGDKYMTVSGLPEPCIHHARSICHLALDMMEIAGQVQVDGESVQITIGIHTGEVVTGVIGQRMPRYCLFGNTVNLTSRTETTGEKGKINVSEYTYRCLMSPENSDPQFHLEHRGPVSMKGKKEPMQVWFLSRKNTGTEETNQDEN

As to `C[C@H]([C@H](C(=O)Nc1cc(CC2(C(=O)O)CC2(F)F)ccc1Cl)c1ccc(Cl)cc1)C(F)(F)F` (single isomer, unassigned; (+)) [Example 71], the Emax in assay [1] was found to be 0%; in assay [2], 20%; in assay [4], 0%. Also, the values for the EC50 in assay [1], in assay [2] and in assay [4] were more than 10000 nM, 460 nM and more than 10000 nM, respectively. Also, the “MEC (minimum effective concentration), sGC-activating activity in the CHO reporter cell” value (“MEC (minimum effective concentration)” for short) in assay [3] is 3 nM.
For the compound `COc1ccc(CC2(C(=O)O)CC2)cc1CNC(=O)c1ccc(Cl)cc1Cl` [Example 11 of EP 1 452 521-A1, 1-(3-{[(2,4-dichlorobenzoyl)amino]methyl}-4-methoxybenzyl)cyclopropanecarboxylic acid, reference compound], the Emax in assay [1] amounted to 10%; in assay [2], 0%; in assay [4], 0%. Besides, the EC50 in assay [1], in assay [2] and in assay [4] was more than 1000 nM each time. The “Effect in the cellular PPAR transactivation test (in words)” value in assay [4] (statement covers the PPARα, PPARγ and PPARδ test) is reported as “virtually ineffective”.
Regarding `Cc1ccc(CC2(C(=O)O)CC2)cc1NC(=O)[C@H](c1ccc(Cl)cc1)[C@@H](C)C(F)(F)F` [Example 33, 1-(3-{[(2S,3R)-2-(4-chlorophenyl)-4,4,4-trifluoro-3-methylbutanoyl]amino}-4-methylbenzyl)-cyclopropanecarboxylic acid], the Emax was determined as 0% in assay [1], 10% in assay [2] and 0% in assay [4]. The figures for the EC50 in assay [1], in assay [2] and in assay [4] were more than 10000 nM, 4000 nM and more than 10000 nM, respectively. Moreover, the “MEC (minimum effective concentration)” value in assay [3] is recorded as 3 nM.
With `C[C@H]([C@H](C(=O)Nc1cc(CC2(C(=O)O)CC2)ccc1F)c1ccc(C(C)(F)F)cc1)C(F)(F)F` [Example 38, 1-[3-({(2S,3R)-2-[4-(1,1-difluoroethyl)phenyl]-4,4,4-trifluoro-3-methylbutanoyl}amino)-4-fluorobenzyl]cyclopropanecarboxylic acid], the Emax in assay [1], in assay [2] and in assay [4] was 0% each time. Moreover, the EC50 in assay [1], in assay [2] and in assay [4] was more than 10000 nM each time. Moreover, the “MEC (minimum effective concentration)” value in assay [3] was found to be 0.3 nM.
In the case of `C[C@H]([C@H](C(=O)Nc1cc(CC2(C(=O)O)CC2)ccc1F)c1ccc(C2CC2)cc1)C(F)(F)F` [Example 40, 1-(3-{[(2S,3R)-2-(4-cyclopropylphenyl)-4,4,4-trifluoro-3-methylbutanoyl]amino}-4-fluorobenzyl)cyclopropanecarboxylic acid], the Emax in assay [1] is 0%; in assay [2], 10%; in assay [4], 0%. Also, the EC50 is more than 10000 nM in assay [1], 120 nM in assay [2] and more than 10000 nM in assay [4]. In addition, in assay [3], the “MEC (minimum effective concentration)” value worked out at 0.3 nM.
In the case of `Cc1cc(C(C(=O)Nc2cccc(CC3(C(=O)O)CC3)c2)C(C)C(F)(F)F)ccc1Cl` (stereo not drawn) [Example 49, 1-(3-{[2-(4-chloro-3-methylphenyl)-4,4,4-trifluoro-3-methylbutanoyl]amino}benzyl)-cyclopropanecarboxylic acid], the “MEC (minimum effective concentration)” value in assay [3] came to 30 nM.
The same measure, in the same setting: the figure for `C[C@H]([C@H](C(=O)Nc1c(Cl)ccc(CC2(C(=O)O)CC2)c1F)c1ccc(Cl)cc1)C(F)(F)F` [Example 52, 1-(4-Chloro-3-{[(2S,3R)-2-(4-chlorophenyl)-4,4,4-trifluoro-3-methylbutanoyl]amino}-2-fluorobenzyl)cyclopropanecarboxylic acid] is 10 nM.
The same measure, in the same setting: the figure for `C=Cc1ccc([C@@H](C(=O)Nc2cc(CC3(C(=O)O)CC3)ccc2F)[C@@H](C)C(F)(F)F)cc1` [Example 63, (+)-1-(4-Fluoro-3-{[(2S,3R)-4,4,4-trifluoro-3-methyl-2-(4-vinylphenyl)butanoyl]amino}benzyl)-cyclopropanecarboxylic acid] is 0.3 nM.
The same measure, in the same setting: the figure for `C[C@H]([C@H](C(=O)Nc1cc(CC2(C(=O)O)CC2(F)F)ccc1Cl)c1ccc(Cl)cc1)C(F)(F)F` (stereo partly drawn) [Example 69, 1-(4-Chloro-3-{[(2S,3R)-2-(4-chlorophenyl)-4,4,4-trifluoro-3-methylbutanoyl]amino}benzyl)-2,2-difluorocyclopropanecarboxylic acid] is 3 nM.
For `CCCOc1ccc(C(=O)NCc2cc(CC3(C(=O)O)CCCO3)ccc2OCC)c(Cl)c1` (stereo not drawn) [Example 73 of EP 1 452 521-A1, 2-(3-{[(2-chloro-4-propoxybenzoyl)amino]-methyl}-4-ethoxybenzyl)tetrahydrofuran-2-carboxylic acid, reference compound], the Emax in assay [1], in assay [2] and in assay [4] was 100% in each case. Moreover, the results for the EC50 in assay [1], in assay [2] and in assay [4] were 8.4 nM, 8.9 nM and 5.3 nM, respectively.
`C[C@H]([C@H](C(=O)Nc1cc(CC2(C(=O)O)CC2)ccc1C1CC1)c1ccc(Cl)cc1)C(F)(F)F` [Example 97, 1-(3-{[(2S,3R)-2-(4-chlorophenyl)-4,4,4-trifluoro-3-methylbutanoyl]amino}-4-cyclopropyl-benzyl)cyclopropanecarboxylic acid]: the “MEC (minimum effective concentration)” value in assay [3] is listed as 10 nM.
The same measure, in the same setting: the figure for `CCC(c1ccc(Cl)c(NC(=O)[C@H](c2ccc(Cl)cc2)[C@@H](C)C(F)(F)F)c1)C1(C(=O)O)CC1` (stereo partly drawn) [Example 98, 1-[1-(4-Chloro-3-{[(2S,3R)-2-(4-chlorophenyl)-4,4,4-trifluoro-3-methylbutanoyl]amino}phenyl)-propyl]cyclopropanecarboxylic acid] is 0.3 nM; for `C[C@H]([C@H](C(=O)Nc1cc(C(C)(O)C2(C(=O)O)CC2)ccc1Cl)c1ccc(Cl)cc1)C(F)(F)F` (stereo partly drawn) [Example 111, 1-[1-(4-chloro-3-{[(2S,3R)-2-(4-chlorophenyl)-4,4,4-trifluoro-3-methylbutanoyl]amino}phenyl)-1-hydroxyethyl]cyclopropanecarboxylic acid] it is 30 nM.
